Source: patent publication EP0496162A2, “Peptide inhibitors of RAS-GAP interaction” (MERCK & CO. INC., priority 1990, dated 1992)
No end group written: not given here.

How the values were obtained:
[1] = target: T1, S. cerevisiae adenylyl cyclase (Ras Dependent, strain MY1186) (Saccharomyces cerevisiae, UniProt P08678); assay: Yeast adenylyl cyclase assay, Ras-dependent, membranes from strain MY1186 (expresses mammalian Ras); type: biochemical; conditions: part A
T1 construct: S. cerevisiae strain MY1186 lacks endogenous yeast Ras, expresses viral Ha-Ras, and has a Ras-dependent adenylyl cyclase; endogenous in cells; host or cells: membranes of recombinant S. cerevisiae strain MY1186 (cyclase endogenous; Ha-Ras heterologously expressed)
Text: (§1) Another Ras-dependent enzymatic assay was used to extend the observed ability of the peptides of the present invention to inhibit Ras function. This system, yeast adenylyl cyclase assay, measures the Ras-dependent conversion of ATP into cyclic AMP (cAMP). […] Furthermore, in S. cerevisiae, regulation of cAMP metabolism appears to be a major function of Ras. This assay system was used to extend the observed Ras inhibitory activity of the peptides of the present invention, to a Ras function which is GAP-unrelated. S. cerevisiae strain FlD lacks functional Ras proteins, however FlD cells have functional adenylyl cyclase in their cell membrane. […] Similarly, a recombinant S. cerevisiae strain MY1186, lacks yeast Ras proteins but expresses mammalian Ras protein which functions with adenylyl cyclase to regulate cAMP metabolisim in the yeast cells. […] In contrast, S. cerevisiae strain JC377-10B contains a mutant form of adenylyl cyclase which constitutively converts ATP into cAMP with or without Ras.
(§2) Ras peptides were tested at the indicated concentrations for inhibition of S. cerevisiae adenylyl cyclase activity. […] Ras-independent activity was assayed with membranes from strain JC377-10B (ras-minus, constitutively active adenylyl cyclase).
(§3) Yeast strain FlD, MY1186 and JC377-10B, were grown in YEHD medium at 30°C. Membrane fractions were prepared from cultures grown to an A₆₆₀ of 0.5 to 1.0 by glusulase digestion [Casperson, G.F. et al., (1983), J. Biol. Chem., 258, pp. 7911-7914], Dounce homogenization of the spheroplasts in buffer containing 50 mM sodium MES [2(N-morpholino) ethanesulfonic acid] […] Adenylyl cyclase assays (100-µL reaction volume) measured the conversion of [α-³²P]ATP to [³²P]cAMP at 30°C, using 50 µg to 100 µg of membrane protein in assays using membranes from yeast strains MY1186 and JC377-10B.. […] Since these membranes contain adenylyl cyclase, but are lacking Ras protein, stimulation of adenylyl cyclase activity may be measured following reconstitution with purified Ras complexed with GTP. […]

[2] = target: T2, S. cerevisiae adenylyl cyclase (Ras Dependent, strain FlD reconstituted with purified Ras) (Saccharomyces cerevisiae, UniProt P08678); assay: Yeast adenylyl cyclase assay, reconstitution of FlD membranes with purified Ras protein; type: biochemical; conditions: part B, FlD membranes with 5 µM purified Ras protein, peptide 10 µM
T2 construct: Since these membranes contain adenylyl cyclase, but are lacking Ras protein; endogenous in cells; host or cells: membranes of S. cerevisiae strain FlD
Text: as §1, §2, §3

T1 sequence (P08678 whole entry): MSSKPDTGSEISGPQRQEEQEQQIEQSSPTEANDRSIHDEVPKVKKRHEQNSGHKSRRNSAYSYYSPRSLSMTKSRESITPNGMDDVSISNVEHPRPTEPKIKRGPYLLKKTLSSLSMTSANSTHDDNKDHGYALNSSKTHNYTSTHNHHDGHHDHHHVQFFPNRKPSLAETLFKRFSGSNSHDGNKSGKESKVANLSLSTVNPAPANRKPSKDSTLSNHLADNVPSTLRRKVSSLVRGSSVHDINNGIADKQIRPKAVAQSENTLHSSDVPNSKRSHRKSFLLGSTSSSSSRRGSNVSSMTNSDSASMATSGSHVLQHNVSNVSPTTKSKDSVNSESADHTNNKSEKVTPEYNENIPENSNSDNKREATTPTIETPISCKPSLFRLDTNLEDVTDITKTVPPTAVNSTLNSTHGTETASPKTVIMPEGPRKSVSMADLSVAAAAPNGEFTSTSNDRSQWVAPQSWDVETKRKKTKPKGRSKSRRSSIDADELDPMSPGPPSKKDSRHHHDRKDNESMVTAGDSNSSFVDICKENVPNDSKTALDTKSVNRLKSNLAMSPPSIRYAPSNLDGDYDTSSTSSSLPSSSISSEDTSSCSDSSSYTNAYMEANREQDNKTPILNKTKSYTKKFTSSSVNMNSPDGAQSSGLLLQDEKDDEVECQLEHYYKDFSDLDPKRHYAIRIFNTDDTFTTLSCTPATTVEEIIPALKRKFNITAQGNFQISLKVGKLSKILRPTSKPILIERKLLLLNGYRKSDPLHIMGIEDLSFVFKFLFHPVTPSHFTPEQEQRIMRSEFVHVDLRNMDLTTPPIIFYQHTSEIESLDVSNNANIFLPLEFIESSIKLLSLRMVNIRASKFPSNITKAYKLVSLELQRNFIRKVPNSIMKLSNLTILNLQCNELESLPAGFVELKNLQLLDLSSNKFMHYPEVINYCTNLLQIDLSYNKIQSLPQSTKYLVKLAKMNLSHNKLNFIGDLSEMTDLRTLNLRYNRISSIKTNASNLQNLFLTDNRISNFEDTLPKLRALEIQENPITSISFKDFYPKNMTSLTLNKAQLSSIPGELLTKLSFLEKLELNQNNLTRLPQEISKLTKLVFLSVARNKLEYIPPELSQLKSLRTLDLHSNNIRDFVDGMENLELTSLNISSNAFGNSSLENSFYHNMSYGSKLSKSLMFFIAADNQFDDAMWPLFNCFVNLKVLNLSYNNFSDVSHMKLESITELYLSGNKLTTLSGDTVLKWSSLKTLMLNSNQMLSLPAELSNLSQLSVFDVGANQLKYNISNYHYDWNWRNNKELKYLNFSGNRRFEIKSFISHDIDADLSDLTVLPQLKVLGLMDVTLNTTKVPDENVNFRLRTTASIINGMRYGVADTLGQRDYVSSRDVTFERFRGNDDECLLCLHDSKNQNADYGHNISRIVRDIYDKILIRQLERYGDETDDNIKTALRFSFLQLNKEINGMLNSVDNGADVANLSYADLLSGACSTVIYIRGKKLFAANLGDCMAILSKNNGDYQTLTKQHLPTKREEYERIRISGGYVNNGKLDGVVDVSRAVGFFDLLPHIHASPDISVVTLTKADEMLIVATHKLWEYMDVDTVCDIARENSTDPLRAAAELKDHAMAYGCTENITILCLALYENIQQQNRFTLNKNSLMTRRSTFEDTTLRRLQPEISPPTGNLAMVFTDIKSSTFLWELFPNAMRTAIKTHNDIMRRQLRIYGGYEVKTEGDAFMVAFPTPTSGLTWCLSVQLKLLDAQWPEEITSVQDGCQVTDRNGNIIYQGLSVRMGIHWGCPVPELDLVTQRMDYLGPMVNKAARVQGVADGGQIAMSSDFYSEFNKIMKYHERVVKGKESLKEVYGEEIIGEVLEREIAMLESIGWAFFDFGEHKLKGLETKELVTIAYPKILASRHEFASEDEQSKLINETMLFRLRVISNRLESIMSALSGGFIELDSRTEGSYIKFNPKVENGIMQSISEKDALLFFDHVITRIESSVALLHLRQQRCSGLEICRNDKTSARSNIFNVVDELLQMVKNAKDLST
T2 sequence (P08678 whole entry): as above

Compound | %Inhibition of Adenylyl Cyclase Activity Ras Dependent ([1]; peptide 100 µM) [%] | %Inhibition of Adenylyl Cyclase Activity Ras Dependent [2] [%] | %Inhibition of Adenylyl Cyclase Activity Ras Dependent ([1]; peptide 40 µM) [%] | %Inhibition of Adenylyl Cyclase Activity Ras Dependent ([1]; peptide 19 µM) [%]
LIQNHFVDEYDPTIE [Ras 23-37] | 2 | 5 ± 1 |  | 
SALTIQLIQNHFVDEYDPTIE [Ras 17-37] |  |  | 58 ± 2 | 
CC[C@H](C)[C@H](NC(=O)[C@H](CC(C)C)NC(=O)[C@H](CCC(N)=O)NC(=O)[C@@H](NC(=O)[C@@H](NC(=O)[C@H](CC(C)C)NC(=O)[C@H](C)NC(=O)[C@@H](N)CO)[C@@H](C)O)[C@@H](C)CC)C(=O)N[C@@H](CCC(N)=O)C(=O)N[C@@H](CC(N)=O)C(=O)N[C@@H](Cc1c[nH]cn1)C(=O)N[C@@H](Cc1ccccc1)C(=O)N[C@H](C(=O)N[C@@H](CC(=O)O)C(=O)N[C@@H](CCC(=O)O)C(=O)N[C@@H](Cc1ccc(O)cc1)C(=O)O)C(C)C [Ras 17-32] |  | 26 ± 2 |  | 34
